SMILES strings stand for the structures.

Assay [1] has as its target T1, SpCas9 (Streptococcus pyogenes serotype M1, UniProt Q99ZW2). The assay can be described thus: In vitro DNA cleavage assay, SpCas9. The settings on record: 0-40 μM. It is filed as biochemical. On the procedure:
First, Cas9:gRNA complex (30 nM Cas9 (NEB) and 36 nM eGFP targeting gRNA) was formed by mixing each component at a 1:1.2 (Cas9:gRNA) molar ratio and incubating at room temperature for 10 minutes. BRD7586 at doses 0, 5, 10, 20, 30, 40 μM were incubated with Cas9:gRNA complex at 37° C. for 30 minutes at 700 rpm. PCR amplified target eGFP DNA (2 nM) was added after 30 minutes of compound incubation and the mixture was incubated at 37° C. for 30 minutes at 700 rpm. Proteinase K (5 μL) was added and incubated at 37° C. for 30 minutes at 700 rpm to digest the Cas9. The resulting mixtures were purified PCR mini elute kit (Qiagen) and the eluted DNA was quantified by Qubit HS DNA quantification method. Equal amounts of DNA samples were run on a 1% agarose E-gels (invitrogen) for 7 minutes. Images were obtained by an Azure 600 (Azure Biosystem) and quantification of band intensities were performed by ImageJ based analysis.

The subject of a further assay is LbCas12a. Description: eGFP disruption assay, LbCas12a RNP. It is filed as cell-based. The settings on record: RNP delivery, U2OS.eGFP.PEST, 24 h.
The target of assay [2] is T1, SpCas9. Description: Target engagement in live cells (photo-crosslinking, pull-down). The following applies: HEK293T, 20 μM probe, 20 μM competitor. It is filed as cell-based. On the procedure: HEK293T cells were plated in a 6-well plate (400,000 cells/well). The next day, cells were transfected with […] of Cas9 expression plasmid (pX330, Addgene #42230)^51 using Lipofectamine 3000 (Invitrogen). Eight hours after transfection, cells were split into 4 wells of a 12-well plate. Total 24 h after transfection, cells were treated with DMSO, Diazirine-BRD7586 (20 μM), or Diazirine-BRD7586 with BRD7586 (both at 20 μM) for 2 h. Cells were washed with PBS once, and 500 μL of fresh PBS was added to each well. The plate was placed on ice, and cells were irradiated with UV (365 nm) for 15 min. After the removal of PBS, cells were stored at−80° C. until further analysis. Thawed cells were suspended in a lysis buffer (25 mM HEPES, 50 mM KCl, 1% Triton X-100, 1× protease inhibitor cocktail, pH 7.4, 200 μL per well), and a brief sonication was performed to ensure cell lysis. Next, click chemistry was performed with 100 μM of biotin-azide, 350 μM of Cu-TBTA, and 1.5 mM of ascorbate. The reaction was proceeded for 2 h at room temperature with mild rotation, then proteins were precipitated by the addition of cold methanol (5-fold volume of the reaction mixture) to the mixture and keeping at −80° C. for >2 h. Protein pellet was obtained by centrifugation for 10 min at 16,000 g and 4° C. […]

T1 sequence (Q99ZW2 whole entry): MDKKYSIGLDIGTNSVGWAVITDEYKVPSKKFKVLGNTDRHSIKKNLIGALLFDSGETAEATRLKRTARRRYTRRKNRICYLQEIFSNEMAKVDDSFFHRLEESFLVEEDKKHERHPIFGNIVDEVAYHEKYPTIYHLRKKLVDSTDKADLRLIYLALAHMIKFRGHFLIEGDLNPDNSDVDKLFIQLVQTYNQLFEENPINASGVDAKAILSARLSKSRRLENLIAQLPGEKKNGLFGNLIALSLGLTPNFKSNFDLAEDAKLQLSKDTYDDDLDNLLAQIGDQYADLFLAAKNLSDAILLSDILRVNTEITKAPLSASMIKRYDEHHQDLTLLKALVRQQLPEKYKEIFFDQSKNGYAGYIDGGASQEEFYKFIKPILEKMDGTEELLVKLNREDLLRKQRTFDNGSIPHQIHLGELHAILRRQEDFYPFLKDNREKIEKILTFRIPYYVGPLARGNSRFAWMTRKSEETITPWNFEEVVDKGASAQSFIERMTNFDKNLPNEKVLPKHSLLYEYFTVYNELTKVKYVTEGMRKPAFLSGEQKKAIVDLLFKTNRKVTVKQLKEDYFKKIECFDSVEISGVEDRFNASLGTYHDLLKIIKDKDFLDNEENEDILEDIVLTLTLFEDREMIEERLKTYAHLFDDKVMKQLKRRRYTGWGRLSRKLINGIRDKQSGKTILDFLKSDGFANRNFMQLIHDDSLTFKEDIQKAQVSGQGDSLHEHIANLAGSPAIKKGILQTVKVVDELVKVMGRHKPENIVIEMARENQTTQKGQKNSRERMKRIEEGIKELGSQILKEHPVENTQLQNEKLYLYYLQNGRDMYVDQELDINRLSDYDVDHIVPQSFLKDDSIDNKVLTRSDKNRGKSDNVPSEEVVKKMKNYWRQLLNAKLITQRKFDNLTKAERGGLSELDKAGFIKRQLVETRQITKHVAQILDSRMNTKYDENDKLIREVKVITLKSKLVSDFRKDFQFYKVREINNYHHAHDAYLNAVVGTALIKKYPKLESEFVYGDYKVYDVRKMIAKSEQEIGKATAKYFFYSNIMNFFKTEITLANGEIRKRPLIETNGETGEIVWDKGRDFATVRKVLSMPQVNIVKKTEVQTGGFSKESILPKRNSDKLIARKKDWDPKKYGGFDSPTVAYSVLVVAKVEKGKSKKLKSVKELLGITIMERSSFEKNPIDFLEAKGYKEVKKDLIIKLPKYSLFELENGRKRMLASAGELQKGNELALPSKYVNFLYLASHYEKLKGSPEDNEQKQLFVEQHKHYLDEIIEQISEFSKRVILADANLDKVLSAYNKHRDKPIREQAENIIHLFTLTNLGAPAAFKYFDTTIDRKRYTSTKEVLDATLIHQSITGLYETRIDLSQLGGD

On to `O=C(CCS(=O)(=O)c1ccc(Cl)cc1)Nc1nc(-c2ccncc2)cs1` [BRD7586], for which, on SpCas9 [1], the “Inhibition of SpCas9 in in vitro DNA cleavage assay” value was “dose-dependent inhibition”. In the assay with LbCas12a, the “Effect on activity of LbCas12a” value is given as “did not affect the activity”. For the same compound, the “Target engagement in live cells” value at SpCas9 [2] was “demonstrating target engagement in live cells”.

The values above are taken from US20240115557A1, “INHIBITORS OF RNA-GUIDED NUCLEASES AND USES THEREOF” (The Brigham and Women's Hospital, Inc., priority 2022, published 2024).
